In ChEMBL document CHEMBL3046287, “Azoxystrobin resistance of French Mycosphaerella graminicola strains assessed by four in vitro bioassays and by screening of G143A substitution” (Crop Prot, 2010):
Converted amounts (≈) assume the structure as drawn.

Experiments:
Assay type in all cases: functional, organism-based
Zymoseptoria tritici [1] = experiment: Antifungal activity against azoxystrobin-sensitive Zymoseptoria tritici IPO323 carrying cytochrome-b G143 allele assessed as fungal growth inhibition after 6 days at 20 degC by microplate without alamar blue assay; details: IPO323, 144 h
Zymoseptoria tritici [2] = experiment: Antifungal activity against azoxystrobin-sensitive Zymoseptoria tritici T0468 carrying cytochrome-b G143 allele assessed as fungal growth inhibition after 6 days at 20 degC by microplate without alamar blue assay; details: T0468, 144 h
Zymoseptoria tritici [3] = experiment: Antifungal activity against azoxystrobin-sensitive Zymoseptoria tritici T0460 carrying cytochrome-b G143 allele assessed as fungal growth inhibition after 6 days at 20 degC by microplate without alamar blue assay; details: T0460, 144 h
Zymoseptoria tritici [4] = experiment: Antifungal activity against azoxystrobin-sensitive Zymoseptoria tritici T0210 carrying cytochrome-b G143 allele assessed as fungal growth inhibition after 6 days at 20 degC by microplate without alamar blue assay; details: T0210, 144 h
Zymoseptoria tritici [5] = experiment: Antifungal activity against azoxystrobin-sensitive Zymoseptoria tritici T0148 carrying cytochrome-b G143 allele assessed as inhibition of spore germination after 2 days at 18 degC by spotting on PDA medium assay; details: T0148, 48 h
Zymoseptoria tritici [6] = experiment: Antifungal activity against azoxystrobin-sensitive Zymoseptoria tritici T083 carrying cytochrome-b G143 allele assessed as inhibition of spore germination after 2 days at 18 degC by spotting on PDA medium assay; details: T083, 48 h
Zymoseptoria tritici [7] = experiment: Antifungal activity against azoxystrobin-resistant Zymoseptoria tritici T0293 carrying cytochrome-b A143 allele assessed as inhibition of spore germination after 2 days at 18 degC by spotting on PDA medium assay; details: T0293, 48 h
Zymoseptoria tritici [8] = experiment: Antifungal activity against azoxystrobin-resistant Zymoseptoria tritici T049 carrying cytochrome-b A143 allele assessed as inhibition of spore germination after 2 days at 18 degC by spotting on PDA medium assay; details: T049, 48 h
Zymoseptoria tritici [9] = experiment: Antifungal activity against azoxystrobin-resistant Zymoseptoria tritici T0414 carrying cytochrome-b A143 allele assessed as inhibition of spore germination after 2 days at 18 degC by spotting on PDA medium assay; details: T0414, 48 h
Zymoseptoria tritici [10] = experiment: Antifungal activity against azoxystrobin-resistant Zymoseptoria tritici T0451 carrying cytochrome-b A143 allele assessed as fungal colony perpendicular diameter changes after 10 days at 18 degC by spotting on PDA medium assay; details: T0451, 240 h
Zymoseptoria tritici [11] = experiment: Antifungal activity against azoxystrobin-resistant Zymoseptoria tritici T0242 carrying cytochrome-b A143 allele assessed as fungal colony perpendicular diameter changes after 10 days at 18 degC by spotting on PDA medium assay; details: T0242, 240 h
Zymoseptoria tritici [12] = experiment: Antifungal activity against azoxystrobin-resistant Zymoseptoria tritici T0293 carrying cytochrome-b A143 allele assessed as fungal colony perpendicular diameter changes after 10 days at 18 degC by spotting on PDA medium assay; details: T0293, 240 h
Zymoseptoria tritici [13] = experiment: Antifungal activity against azoxystrobin-sensitive Zymoseptoria tritici T0278 carrying cytochrome-b G143 allele assessed as fungal colony perpendicular diameter changes after 10 days at 18 degC by spotting on PDA medium assay; details: T0278, 240 h
Zymoseptoria tritici [14] = experiment: Antifungal activity against azoxystrobin-sensitive Zymoseptoria tritici T0384 carrying cytochrome-b G143 allele assessed as fungal colony perpendicular diameter changes after 10 days at 18 degC by spotting on PDA medium assay; details: T0384, 240 h
Zymoseptoria tritici [15] = experiment: Antifungal activity against azoxystrobin-sensitive Zymoseptoria tritici T021 carrying cytochrome-b G143 allele assessed as fungal colony perpendicular diameter changes after 10 days at 18 degC by spotting on PDA medium assay; details: T021, 240 h
Zymoseptoria tritici [16] = experiment: Antifungal activity against azoxystrobin-sensitive Zymoseptoria tritici T0464 carrying cytochrome-b G143 allele assessed as inhibition of spore germination after 2 days at 18 degC by spotting on PDA medium assay; details: T0464, 48 h
Zymoseptoria tritici [17] = experiment: Antifungal activity against azoxystrobin-sensitive Zymoseptoria tritici T0211 carrying cytochrome-b G143 allele assessed as inhibition of spore germination after 2 days at 18 degC by spotting on PDA medium assay; details: T0211, 48 h
Zymoseptoria tritici [18] = experiment: Antifungal activity against azoxystrobin-sensitive Zymoseptoria tritici T0213 carrying cytochrome-b G143 allele assessed as fungal growth inhibition after 6 days at 20 degC by microplate without alamar blue assay; details: T0213, 144 h
Zymoseptoria tritici [19] = experiment: Antifungal activity against azoxystrobin-sensitive Zymoseptoria tritici T0278 carrying cytochrome-b G143 allele assessed as fungal growth inhibition after 6 days at 20 degC by microplate without alamar blue assay; details: T0278, 144 h
Zymoseptoria tritici [20] = experiment: Antifungal activity against azoxystrobin-sensitive Zymoseptoria tritici T0365 carrying cytochrome-b G143 allele assessed as fungal growth inhibition after 6 days at 20 degC by microplate without alamar blue assay; details: T0365, 144 h
Zymoseptoria tritici [21] = experiment: Antifungal activity against azoxystrobin-resistant Zymoseptoria tritici T0254 carrying cytochrome-b A143 allele assessed as fungal growth inhibition after 6 days at 20 degC by microplate without alamar blue assay; details: T0254, 144 h
Zymoseptoria tritici [22] = experiment: Antifungal activity against azoxystrobin-resistant Zymoseptoria tritici T0293 carrying cytochrome-b A143 allele assessed as fungal growth inhibition after 6 days at 20 degC by microplate without alamar blue assay; details: T0293, 144 h
Zymoseptoria tritici [23] = experiment: Antifungal activity against azoxystrobin-resistant Zymoseptoria tritici T049 carrying cytochrome-b A143 allele assessed as fungal growth inhibition after 6 days at 20 degC by microplate without alamar blue assay; details: T049, 144 h
Zymoseptoria tritici [24] = experiment: Antifungal activity against azoxystrobin-sensitive Zymoseptoria tritici T0470 carrying cytochrome-b G143 allele assessed as fungal colony perpendicular diameter changes after 10 days at 18 degC by spotting on PDA medium assay; details: T0470, 240 h
Zymoseptoria tritici [25] = experiment: Antifungal activity against azoxystrobin-sensitive Zymoseptoria tritici T0464 carrying cytochrome-b G143 allele assessed as fungal colony perpendicular diameter changes after 10 days at 18 degC by spotting on PDA medium assay; details: T0464, 240 h
Zymoseptoria tritici [26] = experiment: Antifungal activity against azoxystrobin-sensitive Zymoseptoria tritici T0466 carrying cytochrome-b G143 allele assessed as fungal colony perpendicular diameter changes after 10 days at 18 degC by spotting on PDA medium assay; details: T0466, 240 h
Zymoseptoria tritici [27] = experiment: Antifungal activity against azoxystrobin-sensitive Zymoseptoria tritici T0460 carrying cytochrome-b G143 allele assessed as fungal colony perpendicular diameter changes after 10 days at 18 degC by spotting on PDA medium assay; details: T0460, 240 h
Zymoseptoria tritici [28] = experiment: Antifungal activity against azoxystrobin-sensitive Zymoseptoria tritici T0210 carrying cytochrome-b G143 allele assessed as fungal colony perpendicular diameter changes after 10 days at 18 degC by spotting on PDA medium assay; details: T0210, 240 h
Zymoseptoria tritici [29] = experiment: Antifungal activity against azoxystrobin-sensitive Zymoseptoria tritici T021 carrying cytochrome-b G143 allele assessed as fungal growth inhibition after 6 days at 20 degC by microplate without alamar blue assay; details: T021, 144 h
Zymoseptoria tritici [30] = experiment: Antifungal activity against azoxystrobin-sensitive Zymoseptoria tritici T0473 carrying cytochrome-b G143 allele assessed as fungal colony perpendicular diameter changes after 10 days at 18 degC by spotting on PDA medium assay; details: T0473, 240 h

CO/C=C(/C(=O)OC)c1ccccc1Oc1cc(Oc2ccccc2C#N)ncn1 [AZOXYSTROBIN]
IC50 (Zymoseptoria tritici [1]): 0.01 µg/mL (≈ 0.0248 µM) | IC50 (Zymoseptoria tritici [2]): 0.02 µg/mL (≈ 0.0496 µM) | IC50 (Zymoseptoria tritici [3]): 0.03 µg/mL (≈ 0.0744 µM) | IC50 (Zymoseptoria tritici [4]): 0.03 µg/mL (≈ 0.0744 µM) | IC50 (Zymoseptoria tritici [5]): 0.08 µg/mL (≈ 0.198 µM) | IC50 (Zymoseptoria tritici [6]): 0.08 µg/mL (≈ 0.198 µM) | IC50 (Zymoseptoria tritici [7]): 11.4 µg/mL (≈ 28.2 µM) | IC50 (Zymoseptoria tritici [8]): 11.6 µg/mL (≈ 28.7 µM) | IC50 (Zymoseptoria tritici [9]): 16.2 µg/mL (≈ 40.3 µM) | IC50 (Zymoseptoria tritici [10]): 14.7 µg/mL (≈ 36.5 µM) | IC50 (Zymoseptoria tritici [11]): 12 µg/mL (≈ 29.7 µM) | IC50 (Zymoseptoria tritici [12]): 10.2 µg/mL (≈ 25.2 µM) | IC50 (Zymoseptoria tritici [13]): 0.17 µg/mL (≈ 0.421 µM) | IC50 (Zymoseptoria tritici [14]): 0.33 µg/mL (≈ 0.818 µM) | IC50 (Zymoseptoria tritici [15]): 0.11 µg/mL (≈ 0.273 µM) | IC50 (Zymoseptoria tritici [16]): 0.22 µg/mL (≈ 0.545 µM) | IC50 (Zymoseptoria tritici [17]): 0.08 µg/mL (≈ 0.198 µM) | IC50 (Zymoseptoria tritici [18]): 0.03 µg/mL (≈ 0.0744 µM) | IC50 (Zymoseptoria tritici [19]): 0.04 µg/mL (≈ 0.0992 µM) | IC50 (Zymoseptoria tritici [20]): 0.16 µg/mL (≈ 0.397 µM) | IC50 (Zymoseptoria tritici [21]): 32.6 µg/mL (≈ 80.8 µM) | IC50 (Zymoseptoria tritici [22]): > 100 µg/mL | IC50 (Zymoseptoria tritici [23]): > 100 µg/mL | IC50 (Zymoseptoria tritici [24]): 0.06 µg/mL (≈ 0.149 µM) | IC50 (Zymoseptoria tritici [25]): 0.25 µg/mL (≈ 0.62 µM) | IC50 (Zymoseptoria tritici [26]): 0.11 µg/mL (≈ 0.273 µM) | IC50 (Zymoseptoria tritici [27]): 0.09 µg/mL (≈ 0.223 µM) | IC50 (Zymoseptoria tritici [28]): 0.06 µg/mL (≈ 0.149 µM) | IC50 (Zymoseptoria tritici [29]): 0.22 µg/mL (≈ 0.545 µM) | IC50 (Zymoseptoria tritici [30]): 0.13 µg/mL (≈ 0.322 µM)
